Source: the kinase profiling compilation of Christmann-Franck et al. (2016)
Several values for one entry are separate records, joined by “and”; a condition that tells them apart may be missing. Equal entries are not always repeated.

Key:
Assay in all cases: radiometric filter-binding kinase assay, Kinase HotSpot
FGFR2 (human) = FGFR2 (human) (UniProt P21802); conditions: compound 0.5 µM; ATP 10 µM
MAPK10 (human) = MAPK10 (human) (UniProt P53779); conditions: compound 0.5 µM; ATP 10 µM
NUAK2 (human) = NUAK2 (human) (UniProt Q9H093); conditions: compound 0.5 µM; ATP 10 µM
ADRBK1 (human) = ADRBK1 (human) (UniProt P25098); conditions: compound 0.5 µM; ATP 10 µM
SGK3 (human) = SGK3 (human) (UniProt Q96BR1); conditions: compound 0.5 µM; ATP 10 µM
PRKD3 (human) = PRKD3 (human) (UniProt O94806); conditions: compound 0.5 µM; ATP 10 µM
STK3 (human) = STK3 (human) (UniProt Q13188); conditions: compound 0.5 µM; ATP 10 µM
PRKCI (human) = PRKCI (human) (UniProt P41743); conditions: compound 0.5 µM; ATP 10 µM
HIPK1 (human) = HIPK1 (human) (UniProt Q86Z02); conditions: compound 0.5 µM; ATP 10 µM
PBK (human) = PBK (human) (UniProt Q96KB5); conditions: compound 0.5 µM; ATP 10 µM
PHKG2 (human) = PHKG2 (human) (UniProt P15735); conditions: compound 0.5 µM; ATP 10 µM
DMPK (human) = DMPK (human) (UniProt Q09013); conditions: compound 0.5 µM; ATP 10 µM
ACVR1 (human) = ACVR1 (human) (UniProt Q04771); conditions: compound 0.5 µM; ATP 10 µM
ERBB4 (human) = ERBB4 (human) (UniProt Q15303); conditions: compound 0.5 µM; ATP 10 µM
SRMS (human) = SRMS (human) (UniProt Q9H3Y6); conditions: compound 0.5 µM; ATP 10 µM
RPS6KA3 KD1 KD2 (human) = RPS6KA3 KD1 KD2 (human) (UniProt P51812); conditions: compound 0.5 µM; ATP 10 µM
DYRK2 (human) = DYRK2 (human) (UniProt Q92630); conditions: compound 0.5 µM; ATP 10 µM
PTK2 (human) = PTK2 (human) (UniProt Q05397); conditions: compound 0.5 µM; ATP 10 µM
SYK (human) = SYK (human) (UniProt P43405); conditions: compound 0.5 µM; ATP 10 µM
NEK4 (human) = NEK4 (human) (UniProt P51957); conditions: compound 0.5 µM; ATP 10 µM
GRK4 (human) = GRK4 (human) (UniProt P32298); conditions: compound 0.5 µM; ATP 10 µM
DDR2 (human) = DDR2 (human) (UniProt Q16832); conditions: compound 0.5 µM; ATP 10 µM
RPS6KA1 KD1 KD2 (human) = RPS6KA1 KD1 KD2 (human) (UniProt Q15418); conditions: compound 0.5 µM; ATP 10 µM
CSNK1G1 (human) = CSNK1G1 (human) (UniProt Q9HCP0); conditions: compound 0.5 µM; ATP 10 µM
CDK4 CCND3 (human) = CDK4 CCND3 (human) (UniProt P30281+P11802); conditions: compound 0.5 µM
MAPK9 (human) = MAPK9 (human) (UniProt P45984); conditions: compound 0.5 µM; ATP 10 µM
NEK6 (human) = NEK6 (human) (UniProt Q9HC98); conditions: compound 0.5 µM; ATP 10 µM
CLK1 (human) = CLK1 (human) (UniProt P49759); conditions: compound 0.5 µM; ATP 10 µM
LYN (human) = LYN (human) (UniProt P07948); conditions: compound 0.5 µM; ATP 10 µM
PRKG2 (human) = PRKG2 (human) (UniProt Q13237); conditions: compound 0.5 µM; ATP 10 µM
ITK (human) = ITK (human) (UniProt Q08881); conditions: compound 0.5 µM; ATP 10 µM
PLK3 (human) = PLK3 (human) (UniProt Q9H4B4); conditions: compound 0.5 µM; ATP 10 µM
MAP3K7 TAB1 (human) = MAP3K7 TAB1 (human) (UniProt O43318+Q15750); conditions: compound 0.5 µM; ATP 10 µM
TAOK2 (human) = TAOK2 (human) (UniProt Q9UL54); conditions: compound 0.5 µM; ATP 10 µM
PLK1 (human) = PLK1 (human) (UniProt P53350); conditions: compound 0.5 µM; ATP 10 µM
CDC42BPB (human) = CDC42BPB (human) (UniProt Q9Y5S2); conditions: compound 0.5 µM; ATP 10 µM
MYLK2 (human) = MYLK2 (human) (UniProt Q9H1R3); conditions: compound 0.5 µM; ATP 10 µM
LIMK1 (human) = LIMK1 (human) (UniProt P53667); conditions: compound 0.5 µM; ATP 10 µM
CAMKK1 (human) = CAMKK1 (human) (UniProt Q8N5S9); conditions: compound 0.5 µM; ATP 10 µM
NEK9 (human) = NEK9 (human) (UniProt Q8TD19); conditions: compound 0.5 µM; ATP 10 µM
PRKCB2 (human) = PRKCB2 (human) (UniProt P05771); conditions: compound 0.5 µM; ATP 10 µM
BTK (human) = BTK (human) (UniProt Q06187); conditions: compound 0.5 µM; ATP 10 µM

Sequence of LIMK1 (human) (P53667 whole entry, looked up): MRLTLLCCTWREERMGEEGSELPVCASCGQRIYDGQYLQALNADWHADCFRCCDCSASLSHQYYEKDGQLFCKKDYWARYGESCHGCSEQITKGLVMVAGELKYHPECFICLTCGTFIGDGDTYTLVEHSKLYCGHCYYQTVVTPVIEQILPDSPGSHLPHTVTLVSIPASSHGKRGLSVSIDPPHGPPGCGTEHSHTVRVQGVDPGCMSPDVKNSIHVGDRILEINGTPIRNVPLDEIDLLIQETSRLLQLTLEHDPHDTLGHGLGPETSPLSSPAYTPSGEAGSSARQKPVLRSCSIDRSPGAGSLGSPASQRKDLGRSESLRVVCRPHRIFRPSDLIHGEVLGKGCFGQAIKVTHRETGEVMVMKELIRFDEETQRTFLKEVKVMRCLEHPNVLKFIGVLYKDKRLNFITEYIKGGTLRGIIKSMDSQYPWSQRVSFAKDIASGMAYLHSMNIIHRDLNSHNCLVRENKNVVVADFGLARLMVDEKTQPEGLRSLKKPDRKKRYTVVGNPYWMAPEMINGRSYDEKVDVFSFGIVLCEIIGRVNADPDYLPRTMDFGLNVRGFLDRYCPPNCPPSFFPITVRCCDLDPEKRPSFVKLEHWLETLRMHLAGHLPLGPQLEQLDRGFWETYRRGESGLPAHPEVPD
Sequence of CDK4 CCND3 (human) (P11802 whole entry, looked up): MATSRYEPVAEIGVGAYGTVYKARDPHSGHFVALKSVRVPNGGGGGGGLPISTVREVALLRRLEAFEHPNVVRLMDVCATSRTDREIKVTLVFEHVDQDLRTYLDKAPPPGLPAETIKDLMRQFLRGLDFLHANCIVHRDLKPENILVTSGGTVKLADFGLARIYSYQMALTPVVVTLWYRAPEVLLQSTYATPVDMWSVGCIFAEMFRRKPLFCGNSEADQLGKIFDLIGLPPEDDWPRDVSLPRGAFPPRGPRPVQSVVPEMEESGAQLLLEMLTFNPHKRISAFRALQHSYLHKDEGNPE
Sequence of CDK4 CCND3 (human) (P30281 whole entry, looked up): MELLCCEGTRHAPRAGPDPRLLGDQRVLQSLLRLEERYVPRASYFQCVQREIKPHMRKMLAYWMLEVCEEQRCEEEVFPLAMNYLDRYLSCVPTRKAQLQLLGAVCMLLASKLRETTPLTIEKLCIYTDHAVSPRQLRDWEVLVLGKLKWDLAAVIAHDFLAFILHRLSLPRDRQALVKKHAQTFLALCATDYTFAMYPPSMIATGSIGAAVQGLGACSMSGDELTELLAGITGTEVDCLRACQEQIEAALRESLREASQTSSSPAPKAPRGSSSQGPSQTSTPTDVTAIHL
Sequence of ITK (human) (Q08881 whole entry, looked up): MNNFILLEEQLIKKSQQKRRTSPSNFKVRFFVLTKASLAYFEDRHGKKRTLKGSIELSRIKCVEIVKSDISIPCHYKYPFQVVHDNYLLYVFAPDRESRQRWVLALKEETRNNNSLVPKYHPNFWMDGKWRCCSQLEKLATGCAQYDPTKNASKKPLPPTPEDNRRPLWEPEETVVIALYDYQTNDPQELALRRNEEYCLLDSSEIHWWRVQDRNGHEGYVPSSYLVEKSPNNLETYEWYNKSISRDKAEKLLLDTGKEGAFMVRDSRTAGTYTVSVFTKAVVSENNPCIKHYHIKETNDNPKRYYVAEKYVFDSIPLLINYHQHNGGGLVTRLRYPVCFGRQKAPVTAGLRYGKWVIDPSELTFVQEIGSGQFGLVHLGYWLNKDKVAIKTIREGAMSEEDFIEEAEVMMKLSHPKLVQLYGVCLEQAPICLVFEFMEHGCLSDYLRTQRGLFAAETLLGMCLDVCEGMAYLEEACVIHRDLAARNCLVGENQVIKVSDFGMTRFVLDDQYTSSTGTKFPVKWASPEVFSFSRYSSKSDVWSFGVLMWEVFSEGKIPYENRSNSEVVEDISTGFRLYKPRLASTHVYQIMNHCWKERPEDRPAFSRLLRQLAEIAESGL
Sequence of MAPK9 (human) (P45984 whole entry, looked up): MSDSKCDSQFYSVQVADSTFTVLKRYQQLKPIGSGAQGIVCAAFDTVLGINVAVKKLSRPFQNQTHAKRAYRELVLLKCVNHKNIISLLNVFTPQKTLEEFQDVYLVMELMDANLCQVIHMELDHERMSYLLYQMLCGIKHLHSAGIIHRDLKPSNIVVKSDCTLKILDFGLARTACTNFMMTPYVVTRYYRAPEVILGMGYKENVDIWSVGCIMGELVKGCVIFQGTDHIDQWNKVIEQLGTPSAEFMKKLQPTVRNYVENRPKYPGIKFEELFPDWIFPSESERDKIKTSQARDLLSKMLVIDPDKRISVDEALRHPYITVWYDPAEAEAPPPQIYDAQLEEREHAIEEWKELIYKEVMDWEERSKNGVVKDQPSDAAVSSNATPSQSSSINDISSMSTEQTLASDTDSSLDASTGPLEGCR
Sequence of PLK3 (human) (Q9H4B4 whole entry, looked up): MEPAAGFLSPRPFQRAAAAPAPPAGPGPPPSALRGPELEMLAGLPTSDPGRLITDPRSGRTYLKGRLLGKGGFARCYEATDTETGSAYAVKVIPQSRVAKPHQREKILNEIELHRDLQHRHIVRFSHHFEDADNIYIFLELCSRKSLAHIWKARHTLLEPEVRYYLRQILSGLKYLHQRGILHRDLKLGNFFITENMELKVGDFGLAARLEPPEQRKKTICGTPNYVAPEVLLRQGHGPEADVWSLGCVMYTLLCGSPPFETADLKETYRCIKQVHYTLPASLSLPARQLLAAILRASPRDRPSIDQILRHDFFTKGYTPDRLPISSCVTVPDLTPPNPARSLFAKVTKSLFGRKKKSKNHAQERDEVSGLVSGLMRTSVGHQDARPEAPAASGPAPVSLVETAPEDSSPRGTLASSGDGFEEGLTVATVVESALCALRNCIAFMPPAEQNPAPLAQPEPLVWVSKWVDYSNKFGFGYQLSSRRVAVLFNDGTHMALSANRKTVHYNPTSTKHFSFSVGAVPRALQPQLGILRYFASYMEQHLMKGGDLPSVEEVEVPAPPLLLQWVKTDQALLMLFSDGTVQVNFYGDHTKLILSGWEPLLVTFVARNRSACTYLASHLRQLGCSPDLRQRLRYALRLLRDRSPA
Sequence of RPS6KA1 KD1 KD2 (human) (Q15418 whole entry, looked up): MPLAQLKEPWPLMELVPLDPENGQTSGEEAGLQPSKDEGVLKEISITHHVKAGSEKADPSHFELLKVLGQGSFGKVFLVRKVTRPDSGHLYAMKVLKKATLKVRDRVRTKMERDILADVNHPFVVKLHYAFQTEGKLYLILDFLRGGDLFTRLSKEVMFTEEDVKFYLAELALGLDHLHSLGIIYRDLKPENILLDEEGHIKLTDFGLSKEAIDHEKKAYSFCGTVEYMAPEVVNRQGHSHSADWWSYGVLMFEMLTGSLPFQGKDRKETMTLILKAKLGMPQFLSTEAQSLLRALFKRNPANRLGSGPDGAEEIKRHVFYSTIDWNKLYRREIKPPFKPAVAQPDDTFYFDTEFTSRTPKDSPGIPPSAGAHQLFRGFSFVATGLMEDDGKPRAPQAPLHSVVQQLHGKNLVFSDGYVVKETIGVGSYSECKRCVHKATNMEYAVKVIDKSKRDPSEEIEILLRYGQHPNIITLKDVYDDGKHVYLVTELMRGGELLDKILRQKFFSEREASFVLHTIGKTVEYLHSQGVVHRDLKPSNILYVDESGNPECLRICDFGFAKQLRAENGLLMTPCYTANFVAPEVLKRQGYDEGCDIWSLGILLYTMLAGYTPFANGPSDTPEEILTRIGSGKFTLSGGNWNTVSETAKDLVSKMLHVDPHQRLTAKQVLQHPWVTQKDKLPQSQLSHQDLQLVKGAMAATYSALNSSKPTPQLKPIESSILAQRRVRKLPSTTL
Sequence of SRMS (human) (Q9H3Y6 whole entry, looked up): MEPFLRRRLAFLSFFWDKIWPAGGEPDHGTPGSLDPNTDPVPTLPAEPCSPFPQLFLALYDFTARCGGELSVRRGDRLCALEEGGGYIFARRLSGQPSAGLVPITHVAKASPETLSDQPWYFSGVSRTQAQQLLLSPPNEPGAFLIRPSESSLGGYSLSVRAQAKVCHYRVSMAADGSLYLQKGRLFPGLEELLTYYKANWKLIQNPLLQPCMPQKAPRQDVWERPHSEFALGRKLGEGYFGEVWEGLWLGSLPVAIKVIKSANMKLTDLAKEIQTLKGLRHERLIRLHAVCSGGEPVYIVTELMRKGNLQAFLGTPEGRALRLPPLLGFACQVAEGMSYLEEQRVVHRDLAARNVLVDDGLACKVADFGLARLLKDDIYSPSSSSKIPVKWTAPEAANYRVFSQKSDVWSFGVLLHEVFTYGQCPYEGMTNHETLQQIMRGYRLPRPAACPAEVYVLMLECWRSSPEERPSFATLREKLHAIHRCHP
Sequence of DDR2 (human) (Q16832 whole entry, looked up): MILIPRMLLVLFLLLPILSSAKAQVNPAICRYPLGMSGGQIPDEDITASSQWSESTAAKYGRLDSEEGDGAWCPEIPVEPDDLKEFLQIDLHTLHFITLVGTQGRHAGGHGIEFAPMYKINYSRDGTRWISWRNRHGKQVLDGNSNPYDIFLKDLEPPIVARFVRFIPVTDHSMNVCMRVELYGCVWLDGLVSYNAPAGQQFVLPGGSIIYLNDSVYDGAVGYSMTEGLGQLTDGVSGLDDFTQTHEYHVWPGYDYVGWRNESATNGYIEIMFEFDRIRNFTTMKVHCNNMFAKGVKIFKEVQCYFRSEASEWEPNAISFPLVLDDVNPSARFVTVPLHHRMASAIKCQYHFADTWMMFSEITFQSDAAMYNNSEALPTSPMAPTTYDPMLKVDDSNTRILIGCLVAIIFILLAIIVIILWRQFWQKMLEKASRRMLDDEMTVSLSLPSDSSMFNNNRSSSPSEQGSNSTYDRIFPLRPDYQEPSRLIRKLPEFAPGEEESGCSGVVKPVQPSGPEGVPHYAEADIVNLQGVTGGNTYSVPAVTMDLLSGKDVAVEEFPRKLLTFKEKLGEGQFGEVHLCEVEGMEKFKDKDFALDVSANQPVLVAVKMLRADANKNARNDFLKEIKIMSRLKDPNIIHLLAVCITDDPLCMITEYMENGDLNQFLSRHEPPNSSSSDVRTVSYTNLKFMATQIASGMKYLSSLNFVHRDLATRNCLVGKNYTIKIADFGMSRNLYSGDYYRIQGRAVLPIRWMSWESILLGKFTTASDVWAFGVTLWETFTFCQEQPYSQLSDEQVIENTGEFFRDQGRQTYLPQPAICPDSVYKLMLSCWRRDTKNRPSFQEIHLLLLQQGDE

Compound: N#Cc1c(NC(=O)c2cccc3ccccc23)sc2c1CCCC2
- residual activity (FGFR2 (human)): 110%
- residual activity (MAPK10 (human)): 112%
- residual activity (NUAK2 (human)): 76.7%
- residual activity (ADRBK1 (human)): 105%
- residual activity (SGK3 (human)): 107%
- residual activity (PRKD3 (human)): 97.7%
- residual activity (STK3 (human)): 111%
- residual activity (PRKCI (human)): 95.9%
- residual activity (HIPK1 (human)): 107%
- residual activity (PBK (human)): 116%
- residual activity (PHKG2 (human)): 101%
- residual activity (DMPK (human)): 109%
- residual activity (ACVR1 (human)): 72.9%
- residual activity (ERBB4 (human)): 99.8%
- residual activity (SRMS (human)): 106%
- residual activity (RPS6KA3 KD1 KD2 (human)): 99%
- residual activity (DYRK2 (human)): 119%
- residual activity (PTK2 (human)): 101%
- residual activity (SYK (human)): 97.6%
- residual activity (NEK4 (human)): 94.6%
- residual activity (GRK4 (human)): 110%
- residual activity (DDR2 (human)): 95.8%
- residual activity (RPS6KA1 KD1 KD2 (human)): 86.1%
- residual activity (CSNK1G1 (human)): 109%
- residual activity (CDK4 CCND3 (human); ATP 10 µM): 97.1%
- residual activity (MAPK9 (human)): 33.9%
- residual activity (NEK6 (human)): 101%
- residual activity (CLK1 (human)): 99.2%
- residual activity (LYN (human)): 104% and 87%
- residual activity (PRKG2 (human)): 111%
- residual activity (ITK (human)): 101%
- residual activity (PLK3 (human)): 99.6%
- residual activity (MAP3K7 TAB1 (human)): 99.7%
- residual activity (TAOK2 (human)): 99.8%
- residual activity (PLK1 (human)): 96.4%
- residual activity (CDC42BPB (human)): 98%
- residual activity (MYLK2 (human)): 101%
- residual activity (LIMK1 (human)): 102%
- residual activity (CAMKK1 (human)): 109%
- residual activity (NEK9 (human)): 96%
- residual activity (PRKCB2 (human)): 104%
- residual activity (BTK (human)): 95%

Compound: O=c1[nH]c2ccccc2n1C1CCN(Cc2ccc(-c3nc4cc5[nH]cnc5cc4nc3-c3ccccc3)cc2)CC1
- residual activity (FGFR2 (human)): 94.2%
- residual activity (MAPK10 (human)): 96%
- residual activity (NUAK2 (human)): 90.4%
- residual activity (ADRBK1 (human)): 95.3%
- residual activity (SGK3 (human)): 108%
- residual activity (PRKD3 (human)): 99.5%
- residual activity (STK3 (human)): 103%
- residual activity (PRKCI (human)): 97%
- residual activity (HIPK1 (human)): 106%
- residual activity (PBK (human)): 103%
- residual activity (PHKG2 (human)): 104%
- residual activity (DMPK (human)): 98%
- residual activity (ACVR1 (human)): 102%
- residual activity (ERBB4 (human)): 105%
- residual activity (SRMS (human)): 93.1%
- residual activity (RPS6KA3 KD1 KD2 (human)): 96.6%
- residual activity (DYRK2 (human)): 107%
- residual activity (PTK2 (human)): 108%
- residual activity (SYK (human)): 97.9%
- residual activity (NEK4 (human)): 106%
- residual activity (GRK4 (human)): 104%
- residual activity (DDR2 (human)): 99.2%
- residual activity (RPS6KA1 KD1 KD2 (human)): 101%
- residual activity (CSNK1G1 (human)): 99.3%
- residual activity (CDK4 CCND3 (human)): 99.7%
- residual activity (MAPK9 (human)): 91.9%
- residual activity (NEK6 (human)): 98.2%
- residual activity (CLK1 (human)): 109%
- residual activity (LYN (human)): 102% and 116%
- residual activity (PRKG2 (human)): 96.8%
- residual activity (ITK (human)): 99.8%
- residual activity (PLK3 (human)): 99.1%
- residual activity (MAP3K7 TAB1 (human)): 84.1%
- residual activity (TAOK2 (human)): 98.8%
- residual activity (PLK1 (human)): 109%
- residual activity (CDC42BPB (human)): 101%
- residual activity (MYLK2 (human)): 103%
- residual activity (LIMK1 (human)): 110%
- residual activity (CAMKK1 (human)): 117%
- residual activity (NEK9 (human)): 99.2%
- residual activity (PRKCB2 (human)): 105%
- residual activity (BTK (human)): 98.4%

Compound: O=C1NC(=O)c2cc(Nc3ccc(F)cc3)c(Nc3ccc(F)cc3)cc21
- residual activity (FGFR2 (human)): 102%
- residual activity (MAPK10 (human)): 97.3%
- residual activity (NUAK2 (human)): 112%
- residual activity (ADRBK1 (human)): 104%
- residual activity (SGK3 (human)): 102%
- residual activity (PRKD3 (human)): 96.7%
- residual activity (STK3 (human)): 90.7%
- residual activity (PRKCI (human)): 89%
- residual activity (HIPK1 (human)): 102%
- residual activity (PBK (human)): 88.4%
- residual activity (PHKG2 (human)): 97.1%
- residual activity (DMPK (human)): 108%
- residual activity (ACVR1 (human)): 92.3%
- residual activity (ERBB4 (human)): 99.4%
- residual activity (SRMS (human)): 95.5%
- residual activity (RPS6KA3 KD1 KD2 (human)): 118%
- residual activity (DYRK2 (human)): 89.1%
- residual activity (PTK2 (human)): 96%
- residual activity (SYK (human)): 98.8%
- residual activity (NEK4 (human)): 107%
- residual activity (GRK4 (human)): 103%
- residual activity (DDR2 (human)): 99.6%
- residual activity (RPS6KA1 KD1 KD2 (human)): 97.7%
- residual activity (CSNK1G1 (human)): 96.3%
- residual activity (CDK4 CCND3 (human); ATP 10 µM): 99%
- residual activity (MAPK9 (human)): 61.4%
- residual activity (NEK6 (human)): 109%
- residual activity (CLK1 (human)): 102%
- residual activity (LYN (human)): 97.8% and 98.7%
- residual activity (PRKG2 (human)): 83.3%
- residual activity (ITK (human)): 87.3%
- residual activity (PLK3 (human)): 98%
- residual activity (MAP3K7 TAB1 (human)): 98.8%
- residual activity (TAOK2 (human)): 94.7%
- residual activity (PLK1 (human)): 99.9%
- residual activity (CDC42BPB (human)): 100%
- residual activity (MYLK2 (human)): 98.7%
- residual activity (LIMK1 (human)): 95.9%
- residual activity (CAMKK1 (human)): 90.2%
- residual activity (NEK9 (human)): 107%
- residual activity (PRKCB2 (human)): 15.5%
- residual activity (BTK (human)): 94.3%

Compound: Cc1cc(Nc2nc(-c3ccccc3)nc3ccccc23)n[nH]1
- residual activity (FGFR2 (human)): 83.7%
- residual activity (MAPK10 (human)): 88.7%
- residual activity (NUAK2 (human)): 71.1%
- residual activity (ADRBK1 (human)): 106%
- residual activity (SGK3 (human)): 104%
- residual activity (PRKD3 (human)): 93.9%
- residual activity (STK3 (human)): 58.5%
- residual activity (PRKCI (human)): 82.6%
- residual activity (HIPK1 (human)): 96.3%
- residual activity (PBK (human)): 95.4%
- residual activity (PHKG2 (human)): 86.3%
- residual activity (DMPK (human)): 100%
- residual activity (ACVR1 (human)): 149%
- residual activity (ERBB4 (human)): 92%
- residual activity (SRMS (human)): 98.7%
- residual activity (RPS6KA3 KD1 KD2 (human)): 66.1%
- residual activity (DYRK2 (human)): 84%
- residual activity (PTK2 (human)): 59.9%
- residual activity (SYK (human)): 61.9%
- residual activity (NEK4 (human)): 95%
- residual activity (GRK4 (human)): 92.1%
- residual activity (DDR2 (human)): 93.2%
- residual activity (RPS6KA1 KD1 KD2 (human)): 58%
- residual activity (CSNK1G1 (human)): 75.7%
- residual activity (CDK4 CCND3 (human); ATP 10 µM): 94.4%
- residual activity (MAPK9 (human)): 92.4%
- residual activity (NEK6 (human)): 93.9%
- residual activity (CLK1 (human)): 74%
- residual activity (LYN (human)): 79.9% and 88.7%
- residual activity (PRKG2 (human)): 98.2%
- residual activity (ITK (human)): 45.4%
- residual activity (PLK3 (human)): 88.3%
- residual activity (MAP3K7 TAB1 (human)): 78.3%
- residual activity (TAOK2 (human)): 90.3%
- residual activity (PLK1 (human)): 97.1%
- residual activity (CDC42BPB (human)): 87.1%
- residual activity (MYLK2 (human)): 62.8%
- residual activity (LIMK1 (human)): 59.6%
- residual activity (CAMKK1 (human)): 90.7%
- residual activity (NEK9 (human)): 79.9%
- residual activity (PRKCB2 (human)): 87.3%
- residual activity (BTK (human)): 43.4%
